Experiments:
DLBCL cell lines = test: Growth of DLBCL cell lines in vitro (nonclinical studies); assay type: cell-based
[1] = tested on: NF-κB (p50) nuclear translocation in CD19-positive B (CLL) cells; test: NF-κB nuclear translocation in B cells from CLL PBMCs, anti-IgM 30 minutes (Example 5); assay type: cell-based, human; conditions: 6 hours compound
Experimental: Alternatively, B cells can also be activated by beads coated with anti-IgM antibody. After the stimulation, PBMCs were fixed using CytoFix buffer and permeabilized using 0.1% Triton X-100 solution. Cells were then stained with anti-CD19 to label B (CLL) cells, Hoechst 33342 to label nuclei, and anti-p105/p50 to label NF-κB subunit. Samples were analyzed on ImageStreamX to evaluate NF-κB nuclear localization in the CD19-positive cells. […] Statistical significance was determined using Student's t-test in Microsoft Excel.

[2] = tested on: MALT1 regulated gene expression in NHL whole blood; conditions: 100 μM 2 h, PMA-stimulated samples
Experimental: Then, aliquots were stimulated with CD3 and CD28 antibodies (1 ug/ml each), PMA (20 ng/ml) and Ionomycin (1 μg/mL), or unstimulated (PBS) for four hours. Following stimulation, the treated blood was transferred into a PAXgene tube (Qiagen; Hilden, Germany) and RNA was extracted using the PAXgene RNA kit.
Gene expression was measured using 100 ng of RNA extracted from the whole blood in the Pan-Cancer Immune Profiling kit (NanoString; Seattle, Wash.) according to the manufacturer's instructions. Gene expression was normalized across samples using NanoString nSolver software. […] Briefly, log2-scaled, normalized NanoString counts were fit to a linear model (which incorporated the patient of origin) and moderated t-statistics, along with the associated Benjamini-Hochberg (BH) corrected p-values, were computed by empirical Bayes moderation of the standard errors towards a common value.

[3] = tested on: NF-κB2, TNFSF10, APOE, PYCARD expression; test: Gene expression in T-cells and PBMCs purified from NHL blood without stimulation (Example 9); assay type: cell-based, human; conditions: no stimulation, 24 hours
Experimental: Peripheral blood was collected from five NHL patients, and the peripheral blood was allowed to stand overnight. Then, the peripheral blood was treated for 24 hours with a MALT inhibitor or DMSO control. PBMCs were purified from the unstimulated blood using a ficoll density gradient and T-cells were purified using CD3 Beads (Miltenyi) using the manufacturers protocol. Purified cells were lysed in RLTplus (Qiagen) and RNA was extracted from the purified cells using an AllPrep kit (Qiagen). Gene expression was measured using 100 ng of RNA in the Pan-Cancer Immune Profiling kit (NanoString) according to the manufacturer's instructions. Gene expression signatures were compared between the MALT inhibitor treated and DMSO treated samples.

[4] = tested on: MALT1 regulated gene expression in CLL whole blood; conditions: 200 μM 24 h, anti-CD3/CD28 four hours
Experimental: (§4) Peripheral blood was collected from three NHL and two CLL patients. […] Prior to stimulation and following stimulation, the treated blood was transferred into a PAXgene tube (Qiagen; Hilden, Germany) and RNA was extracted using the PAXgene RNA kit. Gene expression was measured using 100 ng of RNA extracted from the whole blood in the Pan-Cancer Immune Profiling kit (NanoString; Seattle, Wash.) according to the manufacturer's instructions.

[5] = tested on: T cells (CD4+ and CD8+) in normal blood; test: CD69 expression on T cells, normal peripheral whole blood, anti-CD3/anti-CD28 stimulation (IFC); assay type: cell-based, human; conditions: 200 μM overnight, anti-CD3/anti-CD28 6 hours
Experimental: (§1) Both tubes were mixed well. The treated blood mixture was transferred at 3 mL per well to a 6-well polystyrene culture plate (Falcon, cat. #353046) and incubated overnight in a humidified incubator at 37° C. with 5% CO2.
(§2) The solution was mixed by pipetting with a 1 mL pipette. The plates were incubated in a humidified incubator at 37° C. with 5% CO2 for an additional 6 hours.
(§3) The next day, blood was treated with anti-CD3 and anti-CD28 stimulatory antibodies for 6 hours as described in Example 1 or left untreated. After treatment with the stimulatory antibodies, the red blood cells were lysed using multi-species lysis buffer, and the white blood cells were stained with anti-CD4 and anti-CD8 antibodies to label T cells and an anti-CD69 antibody to measure early T cell activation. Frequency of CD69-positive T cells (CD4+ and CD8+) was measured by IFC.

[6] = tested on: NF-κB (p50) nuclear translocation in T cells; test: NF-kB nuclear translocation in T cells from NHL whole blood by imaging flow cytometry (Example 4); assay type: cell-based, human
Experimental: as §2
Frozen or fresh cells treated with the experimental conditions were obtained. For example, T cells in blood samples could be activated and the PBMCs containing the activated T cells could be isolated using the method described in Example 1. Alternatively, PBMCs in blood samples could be activated and subject to the imaging flow cytometry analysis directly without isolation. If the samples were whole blood, a minimum of 1 mL of blood was used for each test in this experiment. However, less than 1 mL whole blood can also be used in the assay. […]
The samples were imaged on an AMNIS® […]® X Mark II imaging flow cytometer (MilliporeSigma, Burlington, Mass.) immediately, using 60× magnification, and the data was analyzed in IDEAS software using an internalization module, e.g., to evaluate frequency of CD4+ and CD8+ T cells or CLL cells with nuclear enrichment of p50.
The next day, the mixture samples were treated with anti-CD3 and anti-CD28 stimulatory antibodies following a procedure as that described in Example 1. […] Samples were analyzed on ImageStreamX to evaluate NF-κB nuclear localization in the CD4 and the CD8 positive T cells.

[7] = tested on: IL2, an NF-κB regulated gene; test: IL2 expression in purified T-cells and PBMCs from NHL blood (Example 8); assay type: cell-based, human; conditions: T-cells and PBMC from NHL blood; 24 hours; anti-CD3/CD28 six hours
Experimental: The effect of a MALT inhibitor was analyzed utilizing gene expression signatures from purified T-cells and PBMCs from Non-Hodgkin's lymphoma patients. Peripheral blood was collected from five NHL patients, and the peripheral blood was allowed to stand overnight. Then, the peripheral blood was treated for 24 hours with a MALT inhibitor or DMSO control. The blood was then stimulated with monoclonal antibodies against CD3 and CD28 for six hours. Prior to stimulation and following stimulation, PBMC were purified from the treated blood using a ficoll density gradient and T-cells were purified using CD3 Beads (Miltenyi) using the manufacturers protocol. Purified cells were lysed in RLTplus (Qiagen) and RNA was extracted from the purified cells using an AllPrepkit (Qiagen). Gene expression was measured using 100 ng of RNA in the Pan-Cancer Immune Profiling kit (NanoString) according to the manufacturer's instructions.

[8] = tested on: proteases, caspases, protein kinases, and G-protein-coupled receptors; test: Binding inhibition panel at single dose; conditions: single dose of either 1 μM or 10 μM
[9] = tested on: NF-κB (p50) nuclear translocation in B (CLL) cells; test: NF-κB nuclear translocation in B cells from CLL PBMCs, anti-IgM 6 hours (Example 6); assay type: cell-based, human; conditions: CLL PBMC, overnight compound
Experimental: Cells were then treated with anti-IgM or left untreated for 6 hours. After stimulation, PBMC were fixed using CytoFix buffer and permeabilized using 0.1% Triton X-100 solution. Cells were then stained with anti-CD19 to label B (CLL) cells, anti-CD4 and anti-CD8 to label T cells, Hoechst 33342 to label nuclei, and anti-p105/p50 to label NF-kB subunit. Samples were analyzed on ImageStreamX to evaluate NF-kB nuclear localization in B cells or T cells. […] Statistical significance was determined using Student's t-test in Microsoft Excel.

[10] = tested on: T cells (CD4+ and CD8+) in NHL blood; test: CD69 expression on T cells, NHL peripheral whole blood, anti-CD3/anti-CD28 stimulation (IFC); assay type: cell-based, human; conditions: 200 μM overnight, anti-CD3/anti-CD28 6 hours
Experimental: as §1, §2, §3

[11] = tested on: MALT1 regulated gene expression in NHL whole blood; conditions: 200 μM 24 h, anti-CD3/CD28 four hours
Experimental: as §4

[12] = Oral bioavailability (description)
[13] = tested on: NF-κB proteins (p50 and RelB) in CLL cells; conditions: CLL cells treated in vitro; ELISA; cited from earlier work

Row | IC50 ([6]; Homo sapiens, T-cell, overnight, CD3/CD28 stimulation 6 h, read-out: IC50, NFκB nuclear translocation in T cells) | oral bioavailability [12] | Structure (SMILES) | growth of CD79b-mutant DLBCL cell lines (DLBCL cell lines) | growth of ibrutinib-resistant DLBCL cell lines harboring BTK C481S or CARD11 mutations (DLBCL cell lines) | NF-κB nuclear translocation in activated B cells [1] | gene expression of ICOS, POU2F2, CCR4, and CTLA4 [2] | genes upregulated [2] | APOE expression ([3]; purified PBMCs) | PYCARD expression ([3]; purified PBMCs) | NF-κB2 expression ([3]; purified T-cells) | TNFSF10 expression ([3]; purified T-cells) | stimulation induced upregulation of CXCL10 [4] | surface expression of CD69 on CD4+ and CD8+ T cells [5] | NFκB nuclear translocation in T cells (canonical NF-κB signaling) ([6]; CD3/CD28 stimulation, dosage dependent) | stimulation induced upregulation of IL2 [7] | binding inhibition of proteases, caspases, protein kinases, and G-protein-coupled receptors [8] | NF-κB nuclear translocation in B cells activated by anti-IgM [9] | surface expression of CD69 on T cells [10] | stimulation induced upregulation of CXCL10 [11] | nuclear translocation of NF-κB proteins (p50 and RelB) [13]
1 | ~9.5 µM | orally bioavailable | O=C(Nc1ccnc(C(F)(F)F)c1)c1cnn(-c2cccc3c(=O)[nH]ccc23)c1C(F)(F)F [Compound A, 1-(1-oxo-1,2 dihydroisoquinolin-5-yl)-5 (trifluoromethyl)-N-[2 (trifluoromethyl)pyridin-4 yl]-1H-pyrazole-4 carboxamide] | inhibit growth | inhibit growth | inhibited | downregulated | no genes were significantly upregulated | repressed | repressed | repressed | repressed | repressed | not affected | completely blocked | repressed | did not show significant binding inhibition | inhibited | significantly inhibited | repressed | –
2 | – | – | COCCOc1nc(-c2ccc(Cl)c(Cl)c2)n(-c2ccc(NC(=O)CCl)cc2)n1 [MI-2] | – | – | – | – | – | – | – | – | – | – | – | – | – | – | – | – | – | suppress
